“And” between values parts separate entries of the source, which are not always exact repeats. Equal entries are not always repeated.
Assay: Plasma PK: gamma-counted plasma radioactivity, bi-exponential fit
Format: in vivo, human
Description: Additionally, for PK assessment, whole blood samples were collected at six timepoints (Pre-Infusion, 1 h, 4 h, 24 h, 48 h, and 168 h) and processed to extract plasma. All plasma samples were gamma counted locally for analysis of pharmacokinetics.
PK plasma samples were collected at pre-Infusion, 1 h, 4 h, 24 h, 48 h, and 168 h, and counted for radioactivity. Blood samples were first centrifuged to extract plasma, and then the radioactivity in plasma was counted in a gamma counter.
Whole blood samples were collected as detailed in the protocol Schedule of Events i.e. pre-injection, and then at 1 h, 4 h, 24 h, 48 h, and 168 h post-injection. The samples were first centrifuged to separate plasma, and the radioactivity in the plasma was then measured using a gamma counter. Plasma concentrations were subsequently fitted with a bi-exponential function to derive outcome parameters such as the half-life and clearance rate of the radiopharmaceutical in the plasma.

[1] = Cycle 1, plasma radioactivity, bi-exponential fit
[2] = plasma, Cycle 1, excluding patient 42-030
[3] = plasma, Cycle 1, individual patient values
[4] = plasma, Cycle 1, individual patients

O=C([O-])CC[C@H](NC(=O)N[C@@H](CCCCNC(=O)CCCCCCC(=O)NCCCC[C@@H](NC(=O)[C@@H](Cc1ccccc1)NC(=O)[C@@H](Cc1ccc(O)c(I)c1)NC(=O)CC[C@H](C(=O)[O-])N1CCN(CC(=O)[O-])CCN(CC(=O)[O-])CCN(CC(=O)[O-])CC1)C(=O)[O-])C(=O)[O-])C(=O)[O-].[177Lu+3].[H+].[H+].[H+].[H+].[H+] [^177Lu-PSMA I&T, (3S,7S,26R,29R,32R,37R)-29-benzyl-32-(4-hydroxy-3-iodobenzyl)-5,13,20,28,31,34-hexaoxo-37-(4,7,10-tris(carboxymethyl)-1,4,7,10-tetraazacyclododecan-1-yl)-4,6,12,21,27,30,33-heptaazaheptatriacontane-1,3,7,26,37-pentacarboxylic acid; lutetium-177 (III)]
plasma clearance (Cycle 1): 13.06 ± 16.50 L/h
plasma half-life, outlier value (Cycle 1, patient 42-030 (superscan)): 113.96 h
time to peak plasma concentration (Cycle 1, patient 80-007, first post-administration sample delayed): 127 min
plasma mean distribution half-life [1]: 1.89 ± 0.34 h
plasma mean elimination half-life [1]: 14.7 ± 10.1 h and 14.70 ± 10.10 h
distribution volume (Cycle 1 plasma PK): moderate-to-high
AUC Total (plasma, Cycle 1, Mean): 22.77 fIA/L × min
Clearance Rate (plasma, Cycle 1, Mean): 13.06 L/h
Peak Concentration Value (plasma, Cycle 1, Mean): 0.04 fIA/L
Time of Peak Concentration (plasma, Cycle 1, Mean): 59.19 min
Vc (plasma, Cycle 1, Mean): 20.29 L
Vd (plasma, Cycle 1, Mean): 234.64 L
AUC Total, Mean [2]: 22.77 fIA/L x min
AUC Total, max [2]: 37.86 fIA/L x min
AUC Total, median [2]: 20.84 fIA/L x min
AUC Total, min [2]: 3.07 fIA/L x min
Clearance Rate, Mean [2]: 13.06 L/h
Clearance Rate, max [2]: 89.38 L/h
Clearance Rate, median [2]: 9.79 L/h
Clearance Rate, min [2]: 2.89 L/h
Distribution Half-Life, Mean [2]: 1.89 h
Distribution Half-Life, max [2]: 2.42 h
Distribution Half-Life, median [2]: 1.93 h
Distribution Half-Life, min [2]: 1.14 h
Elimination Half-Life, Mean [2]: 14.70 h
Elimination Half-Life, max [2]: 53.30 h
Elimination Half-Life, median [2]: 10.52 h
Elimination Half-Life, min [2]: 8.16 h
Peak Concentration Value, Mean [2]: 0.04 fIA/L
Peak Concentration Value, max [2]: 0.07 fIA/L
Peak Concentration Value, median [2]: 0.04 fIA/L
Peak Concentration Value, min [2]: 0.01 fIA/L
Time of Peak Concentration [2]: 33.00 min
Time of Peak Concentration, Mean [2]: 59.19 min
Time of Peak Concentration, max [2]: 127.00 min
Time of Peak Concentration, median [2]: 59.00 min
Vc, Mean [2]: 20.29 L
Vc, max [2]: 111.78 L
Vc, median [2]: 16.33 L
Vc, min [2]: 9.92 L
distribution volume (column headed "Patient"), Mean [2]: 234.64
distribution volume (column headed "Patient"), max [2]: 1365.03
distribution volume (column headed "Patient"), median [2]: 157.12
distribution volume (column headed "Patient"), min [2]: 54.60
AUC Total [3]: 30.05 fIA/L x min and 27.64 fIA/L x min and 20.58 fIA/L x min and 19.49 fIA/L x min and 3.07 fIA/L x min and 25.59 fIA/L x min and 25.58 fIA/L x min and 21.49 fIA/L x min and 26.70 fIA/L x min and 31.83 fIA/L x min and 15.14 fIA/L x min and 28.67 fIA/L x min and 17.09 fIA/L x min and 19.85 fIA/L x min and 34.96 fIA/L x min and 24.13 fIA/L x min and 13.46 fIA/L x min and 17.93 fIA/L x min and 18.79 fIA/L x min and 15.54 fIA/L x min and 19.50 fIA/L x min and 37.86 fIA/L x min and 21.09 fIA/L x min and 34.60 fIA/L x min and 33.81 fIA/L x min and 19.09 fIA/L x min and 15.16 fIA/L x min
Clearance Rate [3]: 3.89 L/h and 4.21 L/h and 9.97 L/h and 17.94 L/h and 89.38 L/h and 6.26 L/h and 9.62 L/h and 7.63 L/h and 2.82 L/h and 4.73 L/h and 21.26 L/h and 2.89 L/h and 20.65 L/h and 8.08 L/h and 5.73 L/h and 7.92 L/h and 17.68 L/h and 10.55 L/h and 14.19 L/h and 17.10 L/h and 10.68 L/h and 3.95 L/h and 13.78 L/h and 3.66 L/h and 4.78 L/h and 12.34 L/h and 10.74 L/h
Distribution Half-Life [3]: 1.14 h and 2.14 h and 1.88 h and 1.93 h and 1.69 h and 2.13 h and 2.19 h and 2.31 h and 1.81 h and 1.66 h and 1.78 h and 1.35 h and 1.77 h and 2.12 h and 1.92 h and 2.39 h and 1.30 h and 2.03 h and 2.42 h and 1.46 h and 2.05 h and 2.04 h and 2.22 h and 2.21 h and 1.67 h
Elimination Half-Life [3]: 9.61 h and 24.34 h and 15.32 h and 9.32 h and 10.58 h and 10.59 h and 12.43 h and 10.02 h and 10.46 h and 113.96 h and 9.19 h and 12.50 h and 53.30 h and 10.35 h and 9.28 h and 8.16 h and 8.92 h and 35.48 h and 8.68 h and 11.79 h and 19.98 h and 11.28 h and 9.41 h and 23.96 h and 16.65 h
Vc [3]: 21.87 L and 15.83 L and 16.82 L and 13.76 L and 111.78 L and 17.80 L and 11.45 L and 20.41 L and 38.22 L and 10.76 L and 18.90 L and 22.65 L and 15.26 L and 21.10 L and 9.92 L and 17.87 L and 22.51 L and 14.72 L and 16.91 L and 25.15 L and 17.72 L and 12.87 L and 15.24 L and 14.74 L and 11.55 L and 15.53 L and 14.35 L
distribution volume (column headed "Patient") [3]: 136.62 and 93.01 and 134.00 and 273.75 and 1365.03 and 112.27 and 139.07 and 115.14 and 463.99 and 62.71 and 383.51 and 222.08 and 308.54 and 108.16 and 67.50 and 118.24 and 227.51 and 540.13 and 177.78 and 291.02 and 307.91 and 64.25 and 187.12 and 54.60 and 165.33 and 296.49 and 148.91
Time of Peak Concentration (plasma, Cycle 1, individual patient values, time of first post-administration sample): 53.00 min and 60.00 min (6×) and 51.00 min (2×) and 58.00 min and 61.00 min (2×) and 50.00 min and 63.00 min and 57.00 min and 55.00 min and 52.00 min (2×) and 68.00 min and 71.00 min and 65.00 min and 33.00 min and 40.00 min and 69.00 min and 56.00 min and 127.00 min and 47.00 min
Peak Concentration Value (plasma, Cycle 1, individual patient values, value of first post-administration sample): 0.04 fIA/L (10×) and 0.03 fIA/L (4×) and 0.05 fIA/L (7×) and 0.01 fIA/L and 0.06 fIA/L (2×) and 0.02 fIA/L and 0.07 fIA/L (2×)
AUC Total [4]: 19.09 fIA/L × min and 15.16 fIA/L × min and 30.05 fIA/L × min and 27.64 fIA/L × min and 20.58 fIA/L × min and 19.49 fIA/L × min and 3.07 fIA/L × min and 25.59 fIA/L × min and 25.58 fIA/L × min and 21.49 fIA/L × min and 26.70 fIA/L × min and 31.83 fIA/L × min and 15.14 fIA/L × min and 28.67 fIA/L × min and 17.09 fIA/L × min and 19.85 fIA/L × min and 34.96 fIA/L × min and 24.13 fIA/L × min and 13.46 fIA/L × min and 17.93 fIA/L × min and 18.79 fIA/L × min and 15.54 fIA/L × min and 19.50 fIA/L × min and 37.86 fIA/L × min and 21.09 fIA/L × min and 34.60 fIA/L × min and 33.81 fIA/L × min
Clearance Rate [4]: 12.34 L/h and 10.74 L/h and 3.89 L/h and 4.21 L/h and 9.97 L/h and 17.94 L/h and 89.38 L/h and 6.26 L/h and 9.62 L/h and 7.63 L/h and 2.82 L/h and 4.73 L/h and 21.26 L/h and 2.89 L/h and 20.65 L/h and 8.08 L/h and 5.73 L/h and 7.92 L/h and 17.68 L/h and 10.55 L/h and 14.19 L/h and 17.10 L/h and 10.68 L/h and 3.95 L/h and 13.78 L/h and 3.66 L/h and 4.78 L/h
Peak Concentration Value [4]: 0.05 fIA/L (7×) and 0.04 fIA/L (10×) and 0.03 fIA/L (4×) and 0.01 fIA/L and 0.06 fIA/L (2×) and 0.02 fIA/L and 0.07 fIA/L (2×)
Time of Peak Concentration [4]: 47.00 min and 53.00 min and 60.00 min (6×) and 51.00 min (2×) and 58.00 min and 61.00 min (2×) and 50.00 min and 63.00 min and 57.00 min and 55.00 min and 52.00 min (2×) and 68.00 min and 71.00 min and 65.00 min and 33.00 min and 40.00 min and 69.00 min
Vc [4]: 15.53 L and 14.35 L and 21.87 L and 15.83 L and 16.82 L and 13.76 L and 111.78 L and 17.80 L and 11.45 L and 20.41 L and 38.22 L and 10.76 L and 18.90 L and 22.65 L and 15.26 L and 21.10 L and 9.92 L and 17.87 L and 22.51 L and 14.72 L and 16.91 L and 25.15 L and 17.72 L and 12.87 L and 15.24 L and 14.74 L and 11.55 L
Vd [4]: 296.49 L and 148.91 L and 136.62 L and 93.01 L and 134.00 L and 273.75 L and 1365.03 L and 112.27 L and 139.07 L and 115.14 L and 463.99 L and 62.71 L and 383.51 L and 222.08 L and 308.54 L and 108.16 L and 67.50 L and 118.24 L and 227.51 L and 540.13 L and 177.78 L and 291.02 L and 307.91 L and 64.25 L and 187.12 L and 54.60 L and 165.33 L
AUC Total (plasma, Cycle 1, max): 37.86 fIA/L × min
Clearance Rate (plasma, Cycle 1, max): 89.38 L/h
Peak Concentration Value (plasma, Cycle 1, max): 0.07 fIA/L
Time of Peak Concentration (plasma, Cycle 1, max): 127.00 min
Vc (plasma, Cycle 1, max): 111.78 L
Vd (plasma, Cycle 1, max): 1365.03 L
AUC Total (plasma, Cycle 1, median): 20.84 fIA/L × min
Clearance Rate (plasma, Cycle 1, median): 9.79 L/h
Peak Concentration Value (plasma, Cycle 1, median): 0.04 fIA/L
Vc (plasma, Cycle 1, median): 16.33 L
Vd (plasma, Cycle 1, median): 157.12 L
